pIC50: −log10 of the molar value.
Key:
[1] = target: T1, full length G2019 human LRRK2 (Homo sapiens, UniProt Q5S007, R50H); assay: Full length G2019 human LRRK2 inhibition mass spectrometry assay; type: biochemical; settings: LRRKtide to phospho-LRRKtide conversion, RapidFire MS, 2 mM ATP
T1 construct: made in house; host or cells: HEK293 6E cells transduced with BacMam virus (virus generated in Sf9 cells)
Summary of the method: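 Inhibition taken as reduced LRRKtide phosphorylation, quantified by RapidFire-coupled triple-quadrupole MS as product/(product+substrate) peak area. Reaction: 2 mM ATP, 25 μM peptide, ~25 nM full-length G2019 Flag-LRRK2, Hepes pH 7.2 buffer, room temperature for 1 h. 11-point 1-in-4 dilutions from 100 μM; logistic fit gives IC50, reported as pIC50.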

[2] = target: T2, LRRK2 kinase in SH-SY5Y cells over-expressing recombinant full length LRRK2 (Homo sapiens, UniProt Q5S007); assay: Recombinant cellular LRRK2 AlphaScreen assay (LRRK2 Ser935 phosphorylation); type: cell-based; settings: 60 min
T2 construct: A BacMam virus expressing full length recombinant LRRK2 was purchased from Invitrogen; host or cells: SH-SY5Y human neuroblastoma cells transduced with BacMam LRRK2 virus
Summary of the method: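 Read-out is AlphaScreen of LRRK2 pSer935 over total LRRK2 in lysates of SH-SY5Y cells over-expressing full-length LRRK2 via BacMam (24 h transduction). Cells were exposed 60 min at 37 °C to an 11-point 1-in-4 dilution series starting at 10 uM; sigmoidal fit.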

T1 sequence (Q5S007 with tags, fused parts or gaps R50H): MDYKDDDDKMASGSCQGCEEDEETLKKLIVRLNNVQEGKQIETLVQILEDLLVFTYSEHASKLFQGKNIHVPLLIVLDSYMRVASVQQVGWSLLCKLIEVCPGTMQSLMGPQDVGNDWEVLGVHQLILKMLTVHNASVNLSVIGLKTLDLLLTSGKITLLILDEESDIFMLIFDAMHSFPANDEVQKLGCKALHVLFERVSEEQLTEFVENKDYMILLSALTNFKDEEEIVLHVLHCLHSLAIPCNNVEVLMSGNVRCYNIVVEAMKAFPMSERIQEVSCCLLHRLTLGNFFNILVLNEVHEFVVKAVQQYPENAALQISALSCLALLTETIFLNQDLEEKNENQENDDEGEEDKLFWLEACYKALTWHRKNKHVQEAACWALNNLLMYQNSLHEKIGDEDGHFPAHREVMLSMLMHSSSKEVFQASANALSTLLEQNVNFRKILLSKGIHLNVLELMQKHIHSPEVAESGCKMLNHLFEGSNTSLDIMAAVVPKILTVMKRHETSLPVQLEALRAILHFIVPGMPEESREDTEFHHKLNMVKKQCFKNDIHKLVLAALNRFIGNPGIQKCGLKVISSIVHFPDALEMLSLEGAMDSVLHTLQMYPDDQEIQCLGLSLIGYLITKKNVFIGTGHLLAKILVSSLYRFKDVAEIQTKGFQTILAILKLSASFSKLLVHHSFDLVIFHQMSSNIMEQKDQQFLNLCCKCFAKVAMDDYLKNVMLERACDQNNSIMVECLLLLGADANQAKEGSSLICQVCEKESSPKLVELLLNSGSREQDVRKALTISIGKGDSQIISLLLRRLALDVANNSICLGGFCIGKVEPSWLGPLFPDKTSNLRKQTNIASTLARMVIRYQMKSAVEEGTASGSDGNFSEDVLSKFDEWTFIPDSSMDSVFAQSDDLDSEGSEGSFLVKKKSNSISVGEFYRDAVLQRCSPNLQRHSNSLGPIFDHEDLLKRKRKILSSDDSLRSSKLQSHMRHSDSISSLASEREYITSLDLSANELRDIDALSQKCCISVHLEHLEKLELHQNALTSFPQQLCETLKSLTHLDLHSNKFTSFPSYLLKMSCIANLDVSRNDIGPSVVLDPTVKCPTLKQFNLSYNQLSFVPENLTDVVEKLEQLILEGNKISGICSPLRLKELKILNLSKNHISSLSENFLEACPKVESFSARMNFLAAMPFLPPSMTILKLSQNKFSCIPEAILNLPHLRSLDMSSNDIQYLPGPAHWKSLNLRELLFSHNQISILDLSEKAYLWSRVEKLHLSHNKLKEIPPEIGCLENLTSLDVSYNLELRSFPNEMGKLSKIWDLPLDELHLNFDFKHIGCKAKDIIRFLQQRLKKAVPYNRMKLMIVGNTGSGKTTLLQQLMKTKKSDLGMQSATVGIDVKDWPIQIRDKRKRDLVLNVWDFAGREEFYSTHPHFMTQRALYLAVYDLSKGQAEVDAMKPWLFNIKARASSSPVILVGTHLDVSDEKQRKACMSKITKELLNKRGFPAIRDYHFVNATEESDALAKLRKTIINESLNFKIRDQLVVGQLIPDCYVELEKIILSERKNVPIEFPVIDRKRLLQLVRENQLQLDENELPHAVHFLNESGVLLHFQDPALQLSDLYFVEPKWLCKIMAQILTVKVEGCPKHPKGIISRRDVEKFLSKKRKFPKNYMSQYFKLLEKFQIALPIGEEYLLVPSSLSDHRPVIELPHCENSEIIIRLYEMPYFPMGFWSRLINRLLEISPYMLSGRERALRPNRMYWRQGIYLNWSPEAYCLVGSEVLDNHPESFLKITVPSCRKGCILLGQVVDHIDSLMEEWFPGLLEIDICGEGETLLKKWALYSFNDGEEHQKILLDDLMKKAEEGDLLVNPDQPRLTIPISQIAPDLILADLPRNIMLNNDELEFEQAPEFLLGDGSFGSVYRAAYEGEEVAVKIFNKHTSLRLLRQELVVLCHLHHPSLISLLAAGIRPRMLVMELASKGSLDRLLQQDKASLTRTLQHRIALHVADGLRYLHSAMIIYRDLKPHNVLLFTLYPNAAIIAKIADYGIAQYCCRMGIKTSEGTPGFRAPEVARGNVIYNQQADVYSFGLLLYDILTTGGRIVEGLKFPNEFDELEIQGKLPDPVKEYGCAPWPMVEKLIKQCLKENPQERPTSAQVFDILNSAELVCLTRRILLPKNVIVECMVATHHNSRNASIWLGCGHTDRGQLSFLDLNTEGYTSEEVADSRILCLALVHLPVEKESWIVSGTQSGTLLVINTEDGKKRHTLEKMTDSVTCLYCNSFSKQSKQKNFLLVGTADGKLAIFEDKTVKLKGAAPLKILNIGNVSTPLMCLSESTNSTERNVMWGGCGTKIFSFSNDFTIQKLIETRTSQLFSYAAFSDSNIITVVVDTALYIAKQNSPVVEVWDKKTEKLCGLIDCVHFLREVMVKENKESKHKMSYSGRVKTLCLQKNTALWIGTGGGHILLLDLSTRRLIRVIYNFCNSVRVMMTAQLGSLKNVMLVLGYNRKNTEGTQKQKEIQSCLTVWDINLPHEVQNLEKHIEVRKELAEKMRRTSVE
T2 sequence (Q5S007 whole entry): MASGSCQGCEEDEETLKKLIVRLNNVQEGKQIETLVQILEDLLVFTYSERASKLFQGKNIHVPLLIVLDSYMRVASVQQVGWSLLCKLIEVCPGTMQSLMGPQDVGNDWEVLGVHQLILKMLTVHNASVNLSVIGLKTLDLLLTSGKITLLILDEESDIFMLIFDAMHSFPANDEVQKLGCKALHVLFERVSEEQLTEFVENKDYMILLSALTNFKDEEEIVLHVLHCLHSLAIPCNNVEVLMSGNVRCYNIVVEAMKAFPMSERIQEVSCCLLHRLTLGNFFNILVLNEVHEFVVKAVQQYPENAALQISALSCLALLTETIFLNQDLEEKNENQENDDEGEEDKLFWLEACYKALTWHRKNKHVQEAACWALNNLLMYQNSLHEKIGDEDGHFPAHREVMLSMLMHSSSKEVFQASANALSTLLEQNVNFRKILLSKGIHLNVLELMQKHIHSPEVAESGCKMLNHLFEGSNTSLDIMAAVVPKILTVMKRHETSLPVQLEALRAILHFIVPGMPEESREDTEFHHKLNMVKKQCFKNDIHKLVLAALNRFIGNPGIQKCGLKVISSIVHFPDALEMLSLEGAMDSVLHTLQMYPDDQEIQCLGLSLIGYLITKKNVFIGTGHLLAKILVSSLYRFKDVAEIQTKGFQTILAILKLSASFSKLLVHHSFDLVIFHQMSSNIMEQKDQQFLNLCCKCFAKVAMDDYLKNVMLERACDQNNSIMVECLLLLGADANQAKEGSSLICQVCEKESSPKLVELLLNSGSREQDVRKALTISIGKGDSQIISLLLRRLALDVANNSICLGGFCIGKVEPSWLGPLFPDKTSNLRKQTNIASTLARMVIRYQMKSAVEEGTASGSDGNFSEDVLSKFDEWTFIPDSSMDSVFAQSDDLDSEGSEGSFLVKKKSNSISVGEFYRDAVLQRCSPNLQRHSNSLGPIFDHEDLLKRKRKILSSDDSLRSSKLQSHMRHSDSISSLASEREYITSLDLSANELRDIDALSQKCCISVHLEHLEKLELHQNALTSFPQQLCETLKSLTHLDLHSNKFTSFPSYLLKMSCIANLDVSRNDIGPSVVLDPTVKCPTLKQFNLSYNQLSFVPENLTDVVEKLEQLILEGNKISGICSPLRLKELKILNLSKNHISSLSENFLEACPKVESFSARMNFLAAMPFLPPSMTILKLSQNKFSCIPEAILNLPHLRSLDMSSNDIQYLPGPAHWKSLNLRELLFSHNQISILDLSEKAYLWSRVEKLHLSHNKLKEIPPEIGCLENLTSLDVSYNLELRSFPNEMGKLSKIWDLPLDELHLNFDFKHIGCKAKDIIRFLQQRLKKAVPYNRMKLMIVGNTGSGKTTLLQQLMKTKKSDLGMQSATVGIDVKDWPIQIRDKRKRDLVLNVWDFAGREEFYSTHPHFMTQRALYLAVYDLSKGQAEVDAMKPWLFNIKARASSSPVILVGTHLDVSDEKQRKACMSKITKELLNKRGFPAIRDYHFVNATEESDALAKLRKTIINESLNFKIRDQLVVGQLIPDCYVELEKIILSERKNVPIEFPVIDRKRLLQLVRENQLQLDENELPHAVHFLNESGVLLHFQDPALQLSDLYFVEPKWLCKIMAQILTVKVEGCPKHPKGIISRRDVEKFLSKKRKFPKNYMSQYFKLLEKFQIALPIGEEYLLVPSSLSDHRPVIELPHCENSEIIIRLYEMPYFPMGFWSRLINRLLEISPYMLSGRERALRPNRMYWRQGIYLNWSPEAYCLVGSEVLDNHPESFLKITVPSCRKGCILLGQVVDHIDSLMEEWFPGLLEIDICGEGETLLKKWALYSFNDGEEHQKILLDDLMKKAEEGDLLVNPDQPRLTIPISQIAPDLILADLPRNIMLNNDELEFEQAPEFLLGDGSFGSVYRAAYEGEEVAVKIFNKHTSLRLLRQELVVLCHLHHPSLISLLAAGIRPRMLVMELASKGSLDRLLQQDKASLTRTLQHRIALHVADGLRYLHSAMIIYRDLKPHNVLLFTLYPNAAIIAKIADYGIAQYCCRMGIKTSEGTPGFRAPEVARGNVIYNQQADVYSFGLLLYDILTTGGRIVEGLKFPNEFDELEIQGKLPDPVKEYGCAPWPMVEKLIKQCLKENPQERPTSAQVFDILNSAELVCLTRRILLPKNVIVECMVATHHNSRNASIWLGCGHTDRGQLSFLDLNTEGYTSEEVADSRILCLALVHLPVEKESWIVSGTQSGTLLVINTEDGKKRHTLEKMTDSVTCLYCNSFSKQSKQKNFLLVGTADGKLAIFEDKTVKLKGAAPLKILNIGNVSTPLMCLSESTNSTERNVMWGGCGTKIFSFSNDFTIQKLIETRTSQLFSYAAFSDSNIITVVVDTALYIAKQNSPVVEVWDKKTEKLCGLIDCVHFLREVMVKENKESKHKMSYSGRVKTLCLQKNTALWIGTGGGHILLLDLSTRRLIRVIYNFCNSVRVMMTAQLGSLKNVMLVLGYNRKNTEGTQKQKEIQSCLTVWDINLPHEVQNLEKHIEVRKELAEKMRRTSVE

pIC50 [1]	pIC50 [2]	SMILES
≥ 7.00	≥ 7.00	Cc1c2c(nn1C1CCOCC1)OCCC(C1CC1)Nc1nc(ncc1Cl)N2 (single isomer, unassigned) [E293, 14-Chloro-11-cyclopropyl-4-methyl-5-(oxan-4-yl)-8-oxa-2,5,6,12,16,17-hexaazatricyclo[11.3.1.0^3,7]heptadeca-1(16),3,6,13(17),14-pentaene]
≥ 7.00	≥ 7.00	Cc1c2c(nn1C1COCCC1(F)F)OCCCNc1nc(ncc1Cl)N2 (single isomer, unassigned) [E302, 14-Chloro-5-(4,4-difluorooxan-3-yl)-4-methyl-8-oxa-2,5,6,12,16,17-hexaazatricyclo[11.3.1.0^3,7]heptadeca-1(16),3,6,13(17),14-pentaene]
≥ 7.00	≥ 7.00	Cc1c2c(nn1C1CCCOC1)OCC(C)CNc1nc(ncc1Cl)N2 (single isomer, unassigned) [E306, 14-Chloro-4,10-dimethyl-5-(oxan-3-yl)-8-oxa-2,5,6,12,16,17-hexaazatricyclo[11.3.1.0^3,7]heptadeca-1(16),3,6, 13(17),14-pentaene]
≥ 7.00	≥ 7.00	Cc1c2c(nn1C1CCC(N3CCOCC3)C1)OCCCNc1nc(ncc1Cl)N2 (single isomer, unassigned) [E369, 14-Chloro-4-methyl-5-[3-(morpholin-4-yl)cyclopentyl]-8-oxa-2,5,6,12,16,17-hexaazatricyclo[11.3.1.0^3,7] heptadeca-1(16),3,6,13(17),14-pentaene]
≥ 7.00	≥ 7.00	Cc1c2c(nn1C1CCN(C3COC3)CC1(F)F)OCCCNc1nc(ncc1Cl)N2 (single isomer, unassigned) [E406, 14-Chloro-5-[3,3-difluoro-1-(oxetan-3-yl)piperidin-4-yl]-4-methyl-8-oxa-2,5,6,12,16,17-hexaazatricyclo[11.3.1.0^3,7]heptadeca-1(16),3,6,13(17),14-pentaene]
≥ 7.00	≥ 7.00	Cc1c2c(nn1C1CCOCC1(F)F)OCCCNc1nc(ncc1Cl)N2 (single isomer, unassigned) [E415]
≥ 7.00	≥ 7.00	Cc1c2c(nn1CCN1C[C@@H]3C[C@H]1CO3)OCCCNc1nc(ncc1Cl)N2 (stereo in doubt) [E221, 14-Chloro-4-methyl-5-{2-[(1S,4S)-2-oxa-5-azabicyclo[2.2.1]heptan-5-yl]ethyl}-8-oxa-2,5,6,12,16,17-hexaazatricyclo [11.3.1.0^3,7]heptadeca-1(16),3,6,13(17),14-pentaene]
≥ 7.00	≥ 7.00	Cc1c2c(nn1C1CC(N3CC4CC3CO4)C1)OCC[C@@H](C)Nc1nc(ncc1Cl)N2 (stereo in doubt) [E318, (11R)-14-Chloro-4,11-dimethyl-5-{3-[(1R,4R)-2-oxa-5-azabicyclo[2.2.1]heptan-5-yl]cyclobutyl}-8-oxa-2,5,6,12,16,17-hexaazatricyclo[11.3.1.0^3,7]heptadeca-1(16),3,6,13(17),14-pentaene]
≥ 7.00	≥ 7.00	Cc1c2c(nn1C1CCOCC1)OCCCNc1nc(ncc1Cl)N2 [E1, 14-Chloro-4-methyl-5-(oxan-4-yl)-8-oxa-2,5,6,12,16,17-hexaazatricyclo [11.3.1.0^3,7]heptadeca-1(16),3,6,13(17),14-pentaene]
≥ 7.00	≥ 7.00	Cc1c2c(nn1C1CCOCC1)OCCC(C)Nc1nc(ncc1Cl)N2 (centres unmarked) [E5, 14-Chloro-4,11-dimethyl-5-(oxan-4-yl)-8-oxa-2,5,6,12,16,17-hexaazatricyclo [11.3.1.0^3,7]heptadeca-1(16),3,6,13(17),14-pentaene]
≥ 7.00	≥ 7.00	Cc1c2c(nn1C1CCOCC1)OCC[C@@H](C)Nc1nc(ncc1Cl)N2 [E6, (11R)-14-Chloro-4,11-dimethyl-5-(oxan-4-yl)-8-oxa-2,5,6,12,16,17-hexaazatricyclo [11.3.1.0^3,7]heptadeca-1(16),3,6,13(17),14-pentaene]
≥ 7.00	≥ 7.00	Cc1c2c(nn1C1COC1)OCCCNc1nc(ncc1Cl)N2 [E12, 14-Chloro-4-methyl-5-(oxetan-3-yl)-8-oxa-2,5,6,12,16,17-hexaazatricyclo[11.3.1.0^3,7]heptadeca-1(16),3,6,13(17),14-pentaene]
≥ 7.00	≥ 7.00	Clc1cnc2nc1NCCCOc1nn(C3CCOCC3)c(Cl)c1N2 [E13, 4,14-Dichloro-5-(oxan-4-yl)-8-oxa-2,5,6,12,16,17-hexaazatricyclo[11.3.1.0^3,7]heptadeca-1(16),3,6,13(17),14-pentaene]
≥ 7.00	≥ 7.00	Cc1c2c(nn1C1CC(N3CCOCC3)C1)OCCCNc1nc(ncc1Cl)N2 (centres unmarked) [E45, 14-Chloro-4-methyl-5-[3-(morpholin-4-yl)cyclobutyl]-8-oxa-2,5,6,12,16,17-hexaaza tricyclo[11.3.1.0^3,7]heptadeca-1(16),3,6,13(17),14-pentaene]
≥ 5.00	≥ 7.00	Cc1c2c(nn1[C@H]1CCOC1)OCC[C@@H](C)Nc1nc(ncc1Cl)N2 [E46, (11R)-14-chloro-4,11-dimethyl-5-[(3S)-oxolan-3-yl]-8-oxa-2,5,6,12,16,17-hexaaza tricyclo [11.3.1.0^3,7]heptadeca-1(16),3,6,13(17),14-pentaene]
≥ 7.00	≥ 7.00	Cc1c2c(nn1[C@@H]1CCOC1)OCC[C@@H](C)Nc1nc(ncc1Cl)N2 [E47, (11R)-14-chloro-4,11-dimethyl-5-[(3R)-oxolan-3-yl]-8-oxa-2,5,6,12,16,17-hexaaza tricyclo [11.3.1.0^3,7]heptadeca-1(16),3,6,13(17),14-pentaene]

The next lines start with the compound.

SMILES	pIC50 [1]	pIC50 [2]
Cc1c2c(nn1CC(C)(C)O)OCCC(C)Nc1nc(ncc1Cl)N2 (single isomer, unassigned) [E265, 1-{14-Chloro-4,11-dimethyl-8-oxa-2,5,6,12,16,17-hexaazatricyclo[11.3.1.0^3,7]heptadeca-1(17),3,6,13,15-pentaen-5-yl}-2-methylpropan-2-ol]	≥ 7.00	≥ 7.00
COC1CNc2nc(ncc2Cl)Nc2c(nn(C3COC3)c2C)OC1 (single isomer, unassigned) [E270, 14-Chloro-10-methoxy-4-methyl-5-(oxetan-3-yl)-8-oxa-2,5,6,12,16,17-hexaazatricyclo[11.3.1.0^3,7]heptadeca-1(16),3,6,13(17),14-pentaene]	≥ 7.00	≥ 7.00
COC1CNc2nc(ncc2Cl)Nc2c(nn(CC3CCOCC3)c2C)OC1 (single isomer, unassigned) [E274, 14-Chloro-10-methoxy-4-methyl-5-(oxan-4-ylmethyl)-8-oxa-2,5,6,12,16,17-hexaazatricyclo[11.3.1.0^3,7] heptadeca-1(16),3,6,13(17),14-pentaene]	≥ 7.00	≥ 7.00
COC1CNc2nc(ncc2Cl)Nc2c(nn(C3CCC(C(F)(F)F)CC3)c2C)OC1 (single isomer, unassigned) [E278, 14-Chloro-10-methoxy-4-methyl-5-[4-(trifluoromethyl)cyclohexyl]-8-oxa-2,5,6,12,16,17-hexaazatricyclo [11.3. 1.0^3,7]heptadeca-1(16),3,6,13(17),14-pentaene]	≥ 7.00	≥ 7.00
CCOC1CNc2nc(ncc2Cl)Nc2c(nn(C3CCOCC3)c2C)OC1 (single isomer, unassigned) [E287, 14-Chloro-10-ethoxy-4-methyl-5-(oxan-4-yl)-8-oxa-2,5,6,12,16,17-hexaazatricyclo[11.3.1.0^3,7]heptadeca-1(16),3,6,13(17),14-pentaene]	≥ 7.00	≥ 7.00
Cc1c2c(nn1C1CCOCC1)OCCC(C)Nc1nc(ncc1C(F)(F)F)N2 (single isomer, unassigned) [E291, 4,11-Dimethyl-5-(oxan-4-yl)-14-(trifluoromethyl) -8-oxa-2,5,6,12,16,17-hexaazatricyclo[11.3.1.0^3,7]heptadeca-1(16),3,6,13(17),14-pentaene]	≥ 7.00	≥ 7.00
Cc1c2c(nn1C1COCCC1(F)F)OCC[C@@H](C)Nc1nc(ncc1Cl)N2 (single isomer, unassigned) [E305]	≥ 7.00	≥ 7.00
COCC1CCOc2nn(C3CCOCC3F)c(C)c2Nc2ncc(Cl)c(n2)N1 (single isomer, unassigned) [E351, 14-Chloro-5-(3-fluorooxan-4-yl)-11-(methoxymethyl)-4-methyl-8-oxa-2,5,6,12,16,17-hexaazatricyclo [11.3. 1.0^3,7]heptadeca-1(16),3,6,13(17),14-pentaene]	≥ 7.00	≥ 7.00
Cc1c2c(nn1C1CN(C3COC3)CCC1F)OCC[C@@H](C)Nc1nc(ncc1Cl)N2 (single isomer, unassigned) [E403]	≥ 7.00	≥ 7.00
Cc1c2c(nn1C1CCOCC1(C)C)OCC[C@@H](C)Nc1nc(ncc1Cl)N2 (single isomer, unassigned) [E422]	≥ 7.00	≥ 7.00
C[C@@H]1CCOc2nn(C3CCN(C4COC4)CC3(F)F)c(Cl)c2Nc2ncc(Cl)c(n2)N1 (single isomer, unassigned) [E444]	≥ 7.00	≥ 7.00
Cc1c2c(nn1C1COC1)OCC[C@@H](C)Nc1nc(ncc1Cl)N2 [E52, (11R)-14-chloro-4,11-dimethyl-5-(oxetan-3-yl)-8-oxa-2,5,6,12,16,17-hexaazatricyclo [11.3.1.0^3,7]heptadeca-1(16),3,6,13(17),14-pentaene]	≥ 7.00	≥ 7.00
